The record followed here is PubChem BioAssay AID1996.

The term solubility (kinetic) denotes the concentration staying in solution when a stock, usually in DMSO, is diluted into the medium.

≈ marks a conversion by molar mass, not a printed value.

For this data set the following is noted: buffer; pH 7.4; 200.0 µM.
Consider `COC(=O)c1ccc(COc2ncnc3sccc23)cc1`, for which the kinetic solubility amounted to 17 µg/mL (≈ 56.6 µM).
The same measure for `CN1CCN(c2nc(NCc3ccco3)nc(N)c2[N+](=O)[O-])CC1`: more than 50 µg/mL; for `O=C1CN(c2ccccc2)C(=S)N1c1ccccc1.[Na+]`: 7.4 µg/mL.
The same measure for `CCOc1ccc(N2CC(C(=O)N3CCCC3)CC2=O)cc1` (stereo not drawn): more than 45.4 µg/mL; for `S=C(NCc1ccco1)Nc1ccccc1Cl`: more than 40 µg/mL; for `CN(CCOc1ccccc1)CC(=O)Nc1cc([N+](=O)[O-])ccc1Cl`: 13.7 µg/mL (≈ 37.7 µM).
The same measure for `COc1cc(C(=O)NCC(=O)Nc2c(C)cccc2C)ccc1OCC(=O)N1CCOCC1`: more than 68.3 µg/mL.
On to `O=C(O)c1cnn2c(-c3ccccc3)ccnc12`, for which the solubility (kinetic) was more than 35.9 µg/mL.
The same measure for `Cc1ncc(CN2CCN(CCc3ccccc3)C(CCO)C2)s1` (stereo not drawn): 39.7 µg/mL (≈ 115 µM); for `Cc1ccc2c(c1)C(=O)CCCCC(=O)N2`: more than 32.6 µg/mL; for `N#Cc1ccc(Oc2ccc(NC(=O)C3CC=CCC3C(=O)O)cc2)cc1` (stereo not drawn): more than 54.4 µg/mL.
To `Cc1cccc(NC2=C(Cl)C(=O)OC2OC(=O)c2ccco2)c1` (stereo not drawn) belongs 35.1 µg/mL (≈ 105 µM); to `CCN1CCCC1CNC(=O)C(=O)NC(C)C` (stereo not drawn), more than 36.2 µg/mL; to `O=C(CSc1nncs1)Nc1ccc2c(c1)OCO2`, more than 44.3 µg/mL.
On to `COc1cc(OC)cc(C(=O)N2CC(=O)Nc3ccccc32)c1`, for which the kinetic solubility is more than 46.8 µg/mL.
For `CN1C(=O)C(c2ccccc2)C(=O)N(C)C1=O`, the kinetic solubility stood at 30.5 µg/mL (≈ 131 µM).
To `O=C1Nc2ccccc2C1Cc1ccc(OC(F)(F)F)cc1` (stereo not drawn) belongs 37.3 µg/mL (≈ 121 µM).
The compound `CCC(=NCc1ccco1)c1c(O)n(C)c(=O)n(C)c1=O` displayed a kinetic solubility of more than 43.7 µg/mL.
The same measure for `Cc1ccc(Nc2c([N+](=O)[O-])c(=O)oc3ccccc23)cc1`: 5.8 µg/mL (≈ 19.6 µM).
The same measure for `CCn1c(C)c(C)c2cc(C(=O)NC3CCCCCC3)ccc21`: 0.5 µg/mL (≈ 1.6 µM); for `C[C@H]1O[C@@H](n2cc(F)c(=O)[nH]c2=O)[C@H](O)[C@@H]1O`: more than 36.9 µg/mL.
To `C=CCOn1c(=O)c(-c2ccc(F)cc2)[n+]([O-])c2ccccc21` belongs 2 µg/mL (≈ 6.4 µM).
Compound `O=C(O)C1CCN(c2ccc([N+](=O)[O-])cc2[N+](=O)[O-])CC1` yielded a solubility (kinetic) of more than 44.3 µg/mL.
Compound `Cc1ccc2c(c1)C(c1ccccc1)=NCC(=O)N2C` had a solubility (kinetic) of more than 39.6 µg/mL.
The same measure for `Cc1csc(NC(=O)c2ccccc2)n1`: more than 32.7 µg/mL; for `Nc1ccc(CCNc2ncnc3c2ncn3[C@@H]2O[C@H](CO)[C@@H](O)[C@H]2O)cc1`: more than 58 µg/mL.
To `CC(C)CC(=O)Nc1ccc2c(c1)nc(CCN1CCCCC1)n2C` belongs more than 51.4 µg/mL; to `Cc1cc(S(=O)(=O)NCC2CC2)c(Cl)cc1Cl`, more than 44.1 µg/mL; to `CC(C)N(Cc1ccccc1)C(=S)NC1CCCCC1`, 13.1 µg/mL (≈ 45.1 µM).
To `CCOc1ccccc1NC(=O)Nc1ccon1` belongs 15.5 µg/mL (≈ 62.7 µM).
Regarding `CC(NS(=O)(=O)c1ccc(Cl)c(Cl)c1)C(=O)Nc1cccnc1` (stereo not drawn), the kinetic solubility is more than 56.1 µg/mL.
Compound `Cc1nn(CC(=O)N2CCc3ccccc3C2)c(C)c1[N+](=O)[O-]` came in with a solubility (kinetic) of more than 47.2 µg/mL.
Compound `CCNS(=O)(=O)c1ccc(CCC(=O)N2CCCC2)cc1` came in with a solubility (kinetic) of more than 46.6 µg/mL.
The same measure for `CC(C)(C)c1ccc(C(=O)NCCCNC(=O)c2ccccn2)cc1`: more than 50.9 µg/mL; for `O=[N+]([O-])c1ccc2nc(-c3ccccc3)oc2c1`: 0.4 µg/mL (≈ 1.67 µM).
As for `O=C1CCCC(=O)C1C1c2ccccc2CCN1C(=O)CCl` (stereo not drawn), the kinetic solubility was more than 48 µg/mL.
The same measure for `Clc1ccc(OCCn2cnc(Cl)c2Cl)cc1`: 21.1 µg/mL (≈ 72.4 µM).
To `COCCCNC(=S)N1CCCC(c2nc3cc(C)c(C)cc3[nH]2)C1` (stereo not drawn) belongs 53.2 µg/mL (≈ 148 µM); to `COc1ccc(C(=O)NCC(=O)OCC(=O)N2CCc3ccccc32)cc1`, 23 µg/mL (≈ 62.4 µM); to `CC(C)(C)C(=O)Nc1cccc(S(=O)(=O)NC2=NCCC2)c1`, more than 48.5 µg/mL.
Consider `CNC(=S)Nc1cccc([N+](=O)[O-])c1`, for which the kinetic solubility was more than 31.7 µg/mL.
To `N#Cc1ccc(NC(=S)NC(=O)C2CCCCC2)cc1` belongs 1.6 µg/mL (≈ 5.57 µM); to `Cc1ccc(-n2c(O)c(C=NCCCn3ccnc3)c(=O)[nH]c2=O)cc1`, more than 53 µg/mL.
The same measure for `O=C(O)c1ccc(Nc2ccc(F)c(F)c2)c([N+](=O)[O-])c1`: more than 44.1 µg/mL; for `CN1CCN(C(=O)Nc2ccccc2)CC1.O=C(O)C(=O)O`: more than 46.4 µg/mL; for `Cc1cc(C)n2nc(C(=O)NNC(=O)c3ccccc3)nc2n1`: more than 46.5 µg/mL.
The same measure for `CC(OC(=O)Cc1ccc(Br)cc1)C(=O)NC1CCCC1` (stereo not drawn): 48.7 µg/mL (≈ 137 µM); for `Cc1cccn2c(=O)c3cc(C(=O)NC4CCCC4)sc3nc12`: 4.9 µg/mL (≈ 15 µM); for `Cc1cc(F)ccc1NC(=O)Cn1c(C)csc1=O`: more than 42 µg/mL.
The compound `O=C(CSc1ncccn1)N1CCCC1` showed a kinetic solubility of more than 33.5 µg/mL.
Compound `OCc1cc(-c2ccc(Cl)c(Cl)c2)on1` showed a solubility (kinetic) of more than 36.6 µg/mL.
`O=C1CN(S(=O)(=O)c2cc(Br)ccc2Br)CCN1`: the kinetic solubility was more than 59.7 µg/mL.
The same measure for `CC(C)CC(=O)Nc1ccc([N+](=O)[O-])cc1Cl`: 9.8 µg/mL (≈ 38.2 µM); for `CCOC(=O)c1csc(NC(=O)c2cc(-c3ccccn3)nc3ccccc23)n1`: 1 µg/mL (≈ 2.47 µM); for `C=CCNC(=S)Nc1nc2c(cc1C(=O)OCC)COC(C)(C)C2`: 3.1 µg/mL (≈ 8.87 µM).
In turn, `CC(=O)Nc1ccc(NC(=O)COC(=O)c2ccc([N+](=O)[O-])o2)cc1` had a kinetic solubility of more than 52.1 µg/mL.
The same measure for `CCc1ccc(CNCc2cccs2)cc1.Cl`: 23.9 µg/mL; for `Cc1cc(NC(=O)COc2cccc([N+](=O)[O-])c2)no1`: 2.9 µg/mL (≈ 10.5 µM); for `O=C(Cc1nc2ccccc2[nH]1)c1ccc(Br)cc1`: 24.6 µg/mL (≈ 78.1 µM).
To `Clc1nc2ccccc2nc1-c1ccccc1` belongs 0.6 µg/mL (≈ 2.49 µM).
`CC(C)(C)c1ccc(NC(=O)c2ccsc2)cc1` had a kinetic solubility of 1.1 µg/mL (≈ 4.24 µM).
As to `O=c1c2ccccc2ncn1-c1ccc([N+](=O)[O-])cc1[N+](=O)[O-]`, the solubility (kinetic) came out at 2.7 µg/mL (≈ 8.65 µM).
To `COc1ccccc1CC(=O)Nc1ccc2c(C)cc(=O)oc2c1` belongs 3.6 µg/mL (≈ 11.1 µM).
The same measure for `CC1CCCCC1NC(=O)COc1ccccc1C#N` (stereo not drawn): more than 40.9 µg/mL; for `Cc1cccc(Cl)c1NC(=S)NCCc1ccccn1`: more than 45.9 µg/mL; for `Cc1cccc(OCCn2cnc(Cl)c2Cl)c1`: 27.7 µg/mL (≈ 102 µM).
For `COc1ccc(-n2c(-c3ccc(C)cc3)nc3ccccc3c2=O)cc1`, the kinetic solubility is less than 0.4 µg/mL.
The same measure for `Cc1cc(C)c(C#N)c(OCc2ccc(Cl)nc2)n1`: 8.5 µg/mL (≈ 31.1 µM); for `O=C(COC(=O)/C=C/c1cccc(Cl)c1)Nc1ccc(N2CCOCC2)cc1`: 3.2 µg/mL (≈ 7.98 µM); for `CCC(C(=O)Nc1ccsc1C(=O)OC)c1ccccc1` (stereo not drawn): 5.8 µg/mL (≈ 19.1 µM).
The same measure for `Cc1cccc(N2CC(C(=O)Nc3ccc(N4CCOCC4)cc3)CC2=O)c1C` (stereo not drawn): more than 59 µg/mL; for `O=C(CSc1ncn[nH]1)NCc1ccc2c(c1)OCO2`: more than 43.8 µg/mL; for `CC(=O)Nc1ccc2c(c1)CCCC2`: more than 28.4 µg/mL.
To `O=C(CCS(=O)(=O)c1ccccc1Cl)NC1CCCCCC1` belongs more than 51.6 µg/mL; to `CN(Cc1cccs1)C(=O)CSc1nc2ccccc2[nH]1`, 45 µg/mL (≈ 142 µM); to `O=C(COC(=O)c1ccccc1Cl)NC1CCCCCCC1`, 34.1 µg/mL (≈ 105 µM).
`O=C(CCc1ccc(S(=O)(=O)N2CCOCC2)cc1)Nc1c(F)cccc1F` displayed a solubility (kinetic) of more than 61.6 µg/mL.
To `O=C(Nc1cccc(-c2nc3ccccc3o2)c1)c1cccnc1` belongs 0.3 µg/mL (≈ 0.951 µM); to `Cc1ccccc1-n1c(=O)n(CCc2ccccc2)c(=O)c2[nH]cnc21`, 10.8 µg/mL (≈ 31.2 µM); to `Cc1cccc(NC(=O)NCC(c2ccco2)N2CCCCC2)c1` (stereo not drawn), more than 49.1 µg/mL.
To `COc1cnc(-c2cccc(C(F)(F)F)c2)nc1OC` belongs less than 0.3 µg/mL; to `O=C(Nc1ccccc1)OCCCc1ccccc1`, 9.7 µg/mL (≈ 38 µM); to `CCc1c(-c2ccccc2)[n+](=O)c2c(n1[O-])CCC2`, more than 38.4 µg/mL.
The same measure for `CS(=O)(=O)N(CC(=O)NCC1CCCO1)c1cccc(Cl)c1` (stereo not drawn): more than 52 µg/mL.
`Cc1cc2oc(=O)cc(CN3CCCCC3)c2cc1C` showed a kinetic solubility of less than 0.6 µg/mL.
The same measure for `CCOc1ccc(NC(=O)c2ccc3[nH]c(=O)c(=O)[nH]c3c2)cc1`: 4.8 µg/mL (≈ 14.8 µM); for `COc1ccccc1NS(=O)(=O)c1cc(NC(=O)c2cc(F)c(F)c(F)c2F)ccc1N1CCOCC1`: 3.6 µg/mL (≈ 6.67 µM); for `CC1CCCC(C)N1C(=O)COC(=O)c1cc(F)c(F)cc1Cl` (stereo not drawn): more than 51.9 µg/mL.
`CCC(CC)C(=O)Nc1cccc(C(=O)NCCc2ccccc2)c1`: the solubility (kinetic) came out at 40.8 µg/mL (≈ 121 µM).
Take `CSc1sc(C(=O)N2CCCCC2)c(-c2cccs2)c1C#N`: the kinetic solubility was determined as 31.6 µg/mL (≈ 90.7 µM).
The same measure for `CCN(CC(=O)NCc1cccs1)C(=O)c1cc(Br)ccc1O`: more than 59.6 µg/mL; for `Cc1cc(C)cc(NC(=O)Nc2cccnc2)c1`: more than 36.2 µg/mL.
To `Cc1ccc2oc(C(=O)NCc3ncc(C)[nH]3)c(C)c2c1` belongs 38.7 µg/mL (≈ 137 µM).
To `CN1CN=C(NS(=O)(=O)c2ccc([N+](=O)[O-])cc2)NC1` belongs more than 44.9 µg/mL; to `O=[N+]([O-])c1cccc(CSc2cccc[n+]2[O-])c1`, more than 39.3 µg/mL; to `COCCCNC(=O)C1c2ccccc2Oc2ccccc21`, 15.2 µg/mL (≈ 51.1 µM).
Compound `O=C1CC(N2CCN(c3ccc(F)cc3)CC2)C(=O)N1c1ccccc1` (stereo not drawn) came in with a kinetic solubility of 49.4 µg/mL (≈ 140 µM).
The same measure for `Cc1cnc(NC(=O)C2CC=CCC2)s1` (stereo not drawn): 23.9 µg/mL (≈ 108 µM); for `CN(C(=O)Nc1ccc(C(C)(C)C)cc1)C1CCCCC1`: less than 0.3 µg/mL.
In the case of `COc1ccccc1C(=O)NC(CCSC)C(=O)NC1CC1` (stereo not drawn), the solubility (kinetic) is more than 48.4 µg/mL.
The same measure for `CC(C)(C)c1ccc(C(=O)Nc2cccnc2)cc1`: 28 µg/mL (≈ 110 µM).
To `O=C(Nc1ccncc1)Nc1cccc(Cl)c1Cl` belongs 24.1 µg/mL (≈ 85.4 µM).
The same measure for `CCN(CC)CCOCCOC(=O)C(CC)(CC)c1ccccc1`: 47.7 µg/mL (≈ 142 µM).
